Patent US9149469B2, “Pharmaceutical composition and a process thereof” (INDUS Biotech PVT. Ltd., priority 2007, dated 2015)

Tests used:
[1] = system: oxotremorine induced tremors; assay: Oxotremorine antagonism (tremor, salivation, lacrimation scores); type: in vivo, NMRI mice
Protocol: Oxotremorine is a cholinergic drug which is a muscarine agonist and induces parkinsonism-like signs such as tremors, ataxia, spasticity, salivation, lacrimation and hypothermia. Oxotremorine is a cholinergic drug, which induces excessive tremors in mice. If a drug is having anti-cholinergic property like atropine the tremors will be decreased.
Procedure: Groups of 6-10 male NMRI mice weighing 18-22 g are used. They are dosed orally with the test compound or the standard (5 mg/kg benezatropine mesilate) 1 hour prior to the administration of 0.5 mg/kg oxotremorine. Tremor is scored after oxotremorine dosage in periods of 5 min for 1 hour.
After the administration of 0.5 mg/kg of Oxotremorine, the tremors started within 15 mins and were sustained for 30 mins.

[2] = system: Haloperidol induced catalepsy; assay: Haloperidol induced catalepsy in mice (bar test); type: in vivo, Swiss Albino mice
From the text: Haloperidol is neuroleptic agent that blocks the Dopamine D2 receptor in the brain. This precipitates the extra-pyramidal side effects which can be measured by the “Bar Test for catalepsy in mice”. Catalepsy in mice is defined as a failure to correct an externally imposed unusual posture over a prolonged period of time. […] Haloperidol induced catalepsy can be reversed if dopaminergic drugs that supply dopamine to the striatum of the brain since it increase competitive antagonism.
Procedure: Swiss Albino mice of either sex weighing 23-28 g are used. Catalepsy was induced by Haloparidol (0.5 mg/kg i.p.) and assessed by bar test up to 3 hrs. Six animals are dosed with the saline, test drug and the standard intraperitonially. The animals are placed in translucent plastic boxes with a wooden dowel mounted horizontally 2.5 cm from the floor of the box. The animals are allowed to adapt to the box for 2 min. Then, each animal is grasped gently around the shoulders and under the forepaws and placed carefully on the dowel. The amount of the time spent with at least one forepaw on the bar is determined. When the animal removes its paws, the time is recorded and the mice are repositioned on the bar. Three trials are conducted for each animal at 30, 60, 120 and 360 min, with 6 animals in each group.

[3] = system: 6-OHDA unilateral lesion of the dopaminergic nigrostriatal pathway; assay: 6-Hydroxydopamine model (rotation); type: in vivo, Male Wistar mice
Protocol: 6-Hydroxydopamine (6-OHDA) is a neurotoxin which causes a unilateral lesion of the dopaminergic nigrostriatal pathway that induces hypersensitivity of the post synaptic dopaminergic receptor in the striatum of the lesioned side. An indirect acting compound like amphetamine is administered the mice rotate toward the lesioned side (ipsilateral) as opposed to when a direct acting dopaminergic drug is administered which causes then to rotate contra laterally. Therefore, this test can be used for the study of central dopamine function and the evaluation of dopamine antagonists and agonists, particularly the activity of novel anti-parkinsonian drugs. This test clearly distinguishes drugs with predominantly dopamine receptor agonist activity from those with predominantly dopamine releasing activity of the drug.
Procedure: Male Wistar […] weighing 200-250 grams at the time of surgery are used. They are housed individually in a controlled environment with free access to food and water. The animals are anaesthetized with sodium pentobarbital. The head is placed in a stereotaxic device (DKI 900) and positioned according to the atlas of Konig and Klippel. After a sagittal cut is made in the skin of the skull, a 2 mm wide hole is drilled with an electrical trepan drill. Care is taken not to lesion the meninges. A 30 gauge stainless-steel cannula connected to a Hamilton syringe is aimed at the anterior zona compacta of the substantia nigra (coordinates anterior 1.88 mm, lateral 2.0 mm and dorso-ventral—8.2 mm from instrument zero). A total of 8 μg of […] in 4 γ/L of saline is injected at a rate of 1 γ/L/min. After the intra-cranial injection, the wound is closed.
The animal is allowed several weeks for recovery and for development of the lesion. Specially constructed opaque plastic spheres attached to solid state programming equipment serve as test chambers. The number of full turns, either ipsilateral or contra lateral to the lesion, are recorded on an automatic printout counter every 15 min for one or two hours test sessions. To determine the control values for ipsilateral turning, each subject is administered 2.5 mg/kg of d amphetamine and immediately placed in the circling chamber for 2 hours Control values for contra lateral circling are determined by injecting apomorphine at 1 mg/kg s.c. and recording the rat's circling for 1 hour. Test compounds are given i.p or sc. And the animals placed into the circling chambers. Circling is recorded over a 1 hour period. This experiment is conducted in 30 animals and the average is represented in the table

[4] = positive control 5 mg/kg and oxytremorine, n = 6

## CN1[C@@H]2CC[C@H]1C[C@@H](OC(=O)C(CO)c1ccccc1)C2 (stereo partly shown) [Atropine]
[1]; Atropine 1 mg/kg, FIG. 2
  decrease in severity of tremors: significant decrease in severity of tremors
[1]; Atropine, dose not given
  Lacrimation score at 30 minutes: 0.6
  Salivation score at 30 minutes: 0.8
[1]; [4]
  Tremor score 5 minutes: 0.9
  Tremor score 15 minutes: 0.9
  Tremor score 30 minutes: 1.0
  Tremor score 45 minutes: 1.3

## N[C@@H](Cc1ccc(O)c(O)c1)C(=O)O [L-Dopa, Dihydroxy Phenyl Alanine]
[2]; L-DOPA (10)+Hal (0.5) compared with Hal (0.5) at respective time, FIG. 1
  reduction of catalepsy: significant at P<0.001
[2]; L-Dopa 10 mg/kg compared with test drug 100 mg/kg
  reducing catalepsy, standard versus test drug: more effective than the test drug at a dosage of 100 mg/kg
[3]; L-Dopa 10 mg/kg
  Contra-lateral Rotation: 45.67
  Ipsilateral Rotation: 0.83

## CN1CCc2cccc3c2[C@H]1Cc1ccc(O)c(O)c1-3 [Apomorphine]
[3]; Apomorphine 0.3 mg/kg
  Contra-lateral Rotation: 169.33
  Ipsilateral Rotation: 0.67
